Source: patent US20260345619A1 (Principia Biopharma Inc., priority 2023, published 2026)

Assay: Asthma Quality of Life Questionnaire with Standardized Activities (AQLQ(S))
Type: in vivo, human
Settings: mITT
From the text: The AQLQ(S) is a self-administered patient reported outcome to measure the functional impairments that are most troublesome to adolescents and adults ≥12 years of age as a result of their asthma.
Asthma Quality of Life Questionnaire with Standardized Activities (AQLQ(S)) self-administered (≥12 years)
The AQLQ(S) was designed as a self-administered patient reported outcome to measure the functional impairments that are most troublesome to adolescents and adults ≥12 years of age as a result of their asthma. The instrument is comprised of 32 items, each rated on a 7-point Likert scales from 1 to 7. The AQLQ(S) has 4 domains. The domains and the number of items in each domain are as follows: • Symptoms (12 items) • Activity limitation (11 items) • Emotional function (5 items) • Environmental stimuli (4 items)
A global score is calculated ranging from 1 to 7 and a score by domain. Higher scores indicate better quality of life. […] Patients were to complete the questionnaire in an electronic diary during on-site visits.
Secondary endpoints included pre-bronchodilator FEV1 change from baseline at EOT, ACQ-5 score change from baseline, and AQLQ score change from baseline. Other secondary and exploratory endpoints are described in Table 2.

CC(C)(C=C(C#N)C(=O)N1CCC[C@@H](n2nc(-c3ccc(Oc4ccccc4)cc3F)c3c(N)ncnc32)C1)N1CCN(C2COC2)CC1 (mixture of isomers) [rilzabrutinib, (R)-2-[3-[4-amino-3-(2-fluoro-4-phenoxy-phenyl)pyrazolo[3,4-d]pyrimidin-1-yl]piperidine-1-carbonyl]-4-methyl-4-[4-(oxetan-3-yl)piperazin-1-yl]pent-2-enenitrile]
AQLQ(S) Activity limitation score, Mean (Week 4, 400 mg TID): 5.15 | AQLQ(S) Activity limitation score, Median (Week 4, 400 mg TID): 5.18 | AQLQ(S) Activity limitation score, change from baseline, LS Mean (Week 4, 400 mg TID): 0.34 | AQLQ(S) Activity limitation score, change from baseline, Mean (Week 4, 400 mg TID): 0.16 | AQLQ(S) Activity limitation score, change from baseline, Median (Week 4, 400 mg TID): 0.09 | AQLQ(S) Emotional function score, Mean (Week 4, 400 mg TID): 5.37 | AQLQ(S) Emotional function score, Median (Week 4, 400 mg TID): 5.40 | AQLQ(S) Emotional function score, change from baseline, LS Mean (Week 4, 400 mg TID): 0.35 | AQLQ(S) Emotional function score, change from baseline, Mean (Week 4, 400 mg TID): 0.22 | AQLQ(S) Emotional function score, change from baseline, Median (Week 4, 400 mg TID): 0.20 | AQLQ(S) Environmental stimuli score, Mean (Week 4, 400 mg TID): 4.78 | AQLQ(S) Environmental stimuli score, change from baseline, LS Mean (Week 4, 400 mg TID): 0.30 | AQLQ(S) Environmental stimuli score, change from baseline, Mean (Week 4, 400 mg TID): 0.12 | AQLQ(S) Environmental stimuli score, change from baseline, Median (Week 4, 400 mg TID): 0.25 | AQLQ(S) Global score, Mean (Week 4, 400 mg TID): 5.16 | AQLQ(S) Global score, Median (Week 4, 400 mg TID): 5.03 | AQLQ(S) Global score, change from baseline, LS Mean (Week 4, 400 mg TID): 0.33 | AQLQ(S) Global score, change from baseline, Mean (Week 4, 400 mg TID): 0.19 | AQLQ(S) Global score, change from baseline, Median (Week 4, 400 mg TID): 0.13 | AQLQ(S) Symptoms score, Mean (Week 4, 400 mg TID): 5.19 | AQLQ(S) Symptoms score, Median (Week 4, 400 mg TID): 5.08 | AQLQ(S) Symptoms score, change from baseline, LS Mean (Week 4, 400 mg TID): 0.38 | AQLQ(S) Symptoms score, change from baseline, Mean (Week 4, 400 mg TID): 0.22 | AQLQ(S) Symptoms score, change from baseline, Median (Week 4, 400 mg TID): 0.25 | AQLQ(S) Emotional function score, change from baseline, LS Mean Diff vs. placebo (Week 4, 400 mg TID, 95% CI −0.12, 0.54): 0.21 | AQLQ(S) Symptoms score, change from baseline, LS Mean Diff vs. placebo (Week 4, 400 mg TID, 95% CI −0.14, 0.44): 0.15 | AQLQ(S) Global score, change from baseline, LS Mean Diff vs. placebo (Week 4, 400 mg TID, 95% CI −0.18, 0.36): 0.09 | AQLQ(S) Activity limitation score, change from baseline, LS Mean Diff vs. placebo (Week 4, 400 mg TID, 95% CI −0.20, 0.35): 0.08 | AQLQ(S) Environmental stimuli score, change from baseline, LS Mean Diff vs. placebo (Week 4, 400 mg TID, 95% CI −0.37, 0.30): −0.03 | AQLQ(S) Activity limitation score, Mean (Week 8, 400 mg BID): 5.72 | AQLQ(S) Activity limitation score, Median (Week 8, 400 mg BID): 5.91 | AQLQ(S) Activity limitation score, change from baseline, LS Mean (Week 8, 400 mg BID): 0.89 | AQLQ(S) Activity limitation score, change from baseline, Mean (Week 8, 400 mg BID): 0.96 | AQLQ(S) Activity limitation score, change from baseline, Median (Week 8, 400 mg BID): 0.82 | AQLQ(S) Emotional function score, Mean (Week 8, 400 mg BID): 6.12 | AQLQ(S) Emotional function score, Median (Week 8, 400 mg BID): 6.20 | AQLQ(S) Emotional function score, change from baseline, LS Mean (Week 8, 400 mg BID): 1.06 | AQLQ(S) Emotional function score, change from baseline, Mean (Week 8, 400 mg BID): 0.87 | AQLQ(S) Emotional function score, change from baseline, Median (Week 8, 400 mg BID): 0.60 | AQLQ(S) Environmental stimuli score, Mean (Week 8, 400 mg BID): 5.19 | AQLQ(S) Environmental stimuli score, change from baseline, LS Mean (Week 8, 400 mg BID): 0.66 | AQLQ(S) Environmental stimuli score, change from baseline, Mean (Week 8, 400 mg BID): 0.73 | AQLQ(S) Environmental stimuli score, change from baseline, Median (Week 8, 400 mg BID): 0.50 | AQLQ(S) Global score, Mean (Week 8, 400 mg BID): 5.79 | AQLQ(S) Global score, Median (Week 8, 400 mg BID): 5.88 | AQLQ(S) Global score, change from baseline, LS Mean (Week 8, 400 mg BID): 0.92 | AQLQ(S) Global score, change from baseline, Mean (Week 8, 400 mg BID): 0.90 | AQLQ(S) Global score, change from baseline, Median (Week 8, 400 mg BID): 0.63 | AQLQ(S) Symptoms score, Mean (Week 8, 400 mg BID): 5.93 | AQLQ(S) Symptoms score, Median (Week 8, 400 mg BID): 6.00 | AQLQ(S) Symptoms score, change from baseline, LS Mean (Week 8, 400 mg BID): 0.99 | AQLQ(S) Symptoms score, change from baseline, Mean (Week 8, 400 mg BID): 0.91 | AQLQ(S) Symptoms score, change from baseline, Median (Week 8, 400 mg BID): 0.83 | AQLQ(S) Environmental stimuli score, change from baseline, LS Mean Diff vs. placebo (Week 8, 400 mg BID, 95% CI 0.03, 1.33): 0.68 | AQLQ(S) Symptoms score, change from baseline, LS Mean Diff vs. placebo (Week 8, 400 mg BID, 95% CI 0.35, 1.18): 0.76 | AQLQ(S) Global score, change from baseline, LS Mean Diff vs. placebo (Week 8, 400 mg BID, 95% CI 0.39, 1.20): 0.79 | AQLQ(S) Activity limitation score, change from baseline, LS Mean Diff vs. placebo (Week 8, 400 mg BID, 95% CI 0.39, 1.21): 0.80 | AQLQ(S) Emotional function score, change from baseline, LS Mean Diff vs. placebo (Week 8, 400 mg BID, 95% CI 0.42, 1.54): 0.98 | AQLQ(S) Activity limitation score, Mean (Week 8, 400 mg TID): 5.28 | AQLQ(S) Activity limitation score, Median (Week 8, 400 mg TID): 5.27 | AQLQ(S) Activity limitation score, change from baseline, LS Mean (Week 8, 400 mg TID): 0.42 | AQLQ(S) Activity limitation score, change from baseline, Mean (Week 8, 400 mg TID): 0.29 | AQLQ(S) Activity limitation score, change from baseline, Median (Week 8, 400 mg TID): 0.36 | AQLQ(S) Emotional function score, Mean (Week 8, 400 mg TID): 5.52 | AQLQ(S) Emotional function score, Median (Week 8, 400 mg TID): 5.40 | AQLQ(S) Emotional function score, change from baseline, LS Mean (Week 8, 400 mg TID): 0.51 | AQLQ(S) Emotional function score, change from baseline, Mean (Week 8, 400 mg TID): 0.37 | AQLQ(S) Emotional function score, change from baseline, Median (Week 8, 400 mg TID): 0.40 | AQLQ(S) Environmental stimuli score, Mean (Week 8, 400 mg TID): 4.90 | AQLQ(S) Environmental stimuli score, change from baseline, LS Mean (Week 8, 400 mg TID): 0.36 | AQLQ(S) Environmental stimuli score, change from baseline, Mean (Week 8, 400 mg TID): 0.24 | AQLQ(S) Environmental stimuli score, change from baseline, Median (Week 8, 400 mg TID): 0.25
